Measurements from US20240292843A1, “BIOFILM REMOVAL” (PARTNERS FOR ENDOSCOPY LIMITED, priority 2021, published 2024).

Test system: biofilm containing Pseudomonas aeruginosa
Assay: Biofilm treatment of endoscope biopsy channel pieces, CFU by serial dilution and plate counting (FIG. 1)
Assay type: cell-based
Settings: mature biofilm on biopsy channel tubes; treatment applied for 5 minutes; 1.5 wt. % hydrogen peroxide or 1 mg/ml zeolite Y, aqueous; versus phosphate-buffer saline control; triplicate
Method: The biopsy channel of the endoscope harbors a biofilm containing Pseudomonas aeruginosa. As a first step, to form the sample biopsy tubes harboring the biofilm, the biopsy channel was first cut into small pieces, which are then submerged into Müller-Hilton broth. A single colony of Pseudomonas aeruginosa was added to the broth. At a second step, the pieces were kept in the broth at 37° C. for 24 hours to allow the bacteria to grow. Also in the second step, the tube pieces were then washed 5 times with a copious amount of water to remove dangling bacteria, and to leave only fixed biofilm remaining on the surface of the tubes. The second step is then repeated three times to provide a mature biofilm. To provide the data of FIG. 1, different treatment mixtures were applied for 5 minutes to the tubes with mature biofilm. The tubes with mature biofilm were prepared using the method above. After the treatment mixture is applied, the tubes are washed. The tubes are then placed in a centrifuge tube floating in an ultrasonic bath to release bacteria in the biofilm into solution. The number of colony forming units (CFU) is calculated via serial dilution and plate counting method. Each experiment is performed in triplicate.

For `OO` [hydrogen peroxide], the “number of colony forming units of the Pseudomonas aeruginosa bacteria” value was “causes a reduction”.
